These results are taken from patent publication US5258406A, “Sulfonimidamides” (priority 1992, dated 1993).

Where two headings read alike, the source gives them in different places.

Common to all, as to type: in vivo
One data set relates to HC1. The protocol: (§1) The compounds were tested in C3H mice bearing a 6C3HED lymphosarcoma, also known as the Gardner lymphosarcoma (GLS), and in a variety of human tumor xenografts in CD1 nu/nu mice, including CX-1, LX-1, HXGC3, and VRC5. The 6C3HED lymphosarcoma was obtained from the Division of Cancer Treatment, National […] Institute, Tumor Bank, maintained at E. G. and G. Mason Research (Worcester, Mass.). The CX-1 human colon carcinoma and the LX-1 human lung carcinoma xenografts were obtained from the National Cancer Institute. The HXGC3 and VRC5 human colon xenografts were obtained from Dr. P. J. Houghton, St. Jude Children's Hospital in Memphis (see Br. J. Cancer, 37, 213 (1978)). First passage tumor was stored in liquid nitrogen using standard techniques. The transplanted tumor was reestablished from the Tumor Bank every six months or as needed. The tumor was maintained by serial passage twice weekly in C3H mice.
(§2) In the procedure the tumor was removed from passage animals and minced into 1- to 3-mm square fragments using sterile techniques. Tumor pieces were checked for sterility using both Antibiotic Medium 1 and Brain Heart Infusion (Difco, Detroit, Mich.). Recipient mice were shaved and tumor pieces were implanted subcutaneously in the auxiliary region by trocar. Drug therapy on the appropriate schedule was initiated on the day after tumor implant for 6C3HED and after a seven (7) day delay for xenografts (or other delay as noted in Table 2). The compound being tested was mixed with 2.5% Emulphor EL620 from GAF Corporation (1:40 dilution in saline). Food and water were provided ad libitium. The drug was administered orally in 0.5 ml of 2.5% Emulphor (unless otherwise indicated). The tumor was measured the day after treatment ended with two dimensional measurements (width and length) of the tumor taken using automated digital calipers interfaced to a microcomputer. Approximate weight for the tumor was calculated using the following formula [Worzalla, J. F., et al., Invest. New Drugs, 8, 241 (1990], (tumor weight in mg)=(width in mm)^2 ×(length in mm)/2.
(§3) At least one control group of an equal number of mice was treated with the same volume of 2.5% Emulphor only. The percent inhibition was determined by subtracting the ratio of the mean tumor size of the test group relative to the control group from one and multiplying the result times 100.
(§4) The results of several experiments in mice bearing a 6C3HED lymphosarcoma (or other tumor where indicated) when the indicated compounds were administered are provided in Table 2. In Table 2, column 1 gives the Example number of the compound used, column 2 lists the dose level in mg/kg, column 3 provides the percent inhibition of tumor growth, column 4 gives the number of mice which died relative to the total number of animals in the group, column 5 gives the method of administration of the compound, and column 6 gives the dosage schedule. The protocol used with other tumors was the same as with the 6C3HED lymphosarcoma.

The next data set has as its system LX1. The protocol:
as §1, §2, §3, §4

For another data set, the system named is 6C3HED lymphosarcoma. The data set is described as follows: animal or person.
Another data set concerns VRC5. The note with it: oral, 50 mg/kg, BIDX 10. The protocol:
as §1, §2, §3, §4

The mark [1] stands for this setting: oral, 500 mg/kg, BIDX 14, from day 14 after implant.
Setting [2] is: oral, 3 mg/kg, BIDX 14, from day 7 after implant.
The mark [3] stands for this setting: oral, 150 mg/kg, Days 1, 3, 5, 7.

In the case of `Cc1ccc(S(=N)(=O)NC(=O)Nc2ccc(Cl)cc2)cc1` (centres unmarked) [Example 2, N-[[(4-chlorophenyl)amino]carbonyl]-4-methylbenzenesulfonimidamide], the “Tox/Tot (mice which died / total)” value in the data set with HC1 (oral, 250 mg/kg, BIDX 14, from day 14 after implant) was 2/9; in the data set on HC1 (setting [1]) it was 9/9; in the data set with LX1 (setting [2]) it was 0/10; with LX1 (oral, 10 mg/kg, BIDX 14, from day 7 after implant), 0/10; in the data set with LX1 (oral, 30 mg/kg, BIDX 14, from day 7 after implant) it was 0/10; in the data set on LX1 (oral, 100 mg/kg, BIDX 14, from day 7 after implant), 0/10. In addition, the “Tox/Tot (mice which died / total)” value with LX1 (oral, 300 mg/kg, BIDX 14, from day 7 after implant) is reported as 5/10; in the data set on 6C3HED lymphosarcoma (IP, 150 mg/kg, DX 8), 1/10; in the data set with 6C3HED lymphosarcoma (IP, 300 mg/kg, DX 8) it was 6/10; in the data set on 6C3HED lymphosarcoma (IV, 12.5 mg/kg, DX 8), 0/10; in the data set with 6C3HED lymphosarcoma (IV, 25 mg/kg, DX 8), 1/10; with 6C3HED lymphosarcoma (oral, 50 mg/kg, BIDX 8) it was 0/10. The “Tox/Tot (mice which died / total)” value was 0/10 with 6C3HED lymphosarcoma (oral, 75 mg/kg, DX 8); 0/10 in the data set on 6C3HED lymphosarcoma (oral, 100 mg/kg, BIDX 8); 0/10 with 6C3HED lymphosarcoma (oral, 150 mg/kg, DX 8); 0/10 in the data set with 6C3HED lymphosarcoma (oral, 200 mg/kg, BIDX 8); 0/10 in the data set with 6C3HED lymphosarcoma (oral, 300 mg/kg, DX 8); 0/10 in the data set with 6C3HED lymphosarcoma (oral, 400 mg/kg, BIDX 8). Also, the “Tox/Tot (mice which died / total)” value in the data set with 6C3HED lymphosarcoma (oral, 600 mg/kg, DX 8) is on record as 0/10; in the data set on 6C3HED lymphosarcoma (oral, 800 mg/kg, BIDX 8), 1/10; in the data set on 6C3HED lymphosarcoma (oral, 1200 mg/kg, DX 8), 0/10. For the same molecule, the “% inhibition of tumor growth” value is listed as “TOX” with HC1 (setting [1]); 68% in the data set with HC1 (po, 250 mg/kg, 336 h); 24% with LX1 (setting [2]); 18% in the data set on LX1 (po, 10 mg/kg, 168 h); 28% in the data set with LX1 (po, 30 mg/kg, 168 h); 51% in the data set on LX1 (po, 100 mg/kg, 168 h). In addition, the “% inhibition of tumor growth” value with LX1 (po, 300 mg/kg, 168 h) is 66%; in the data set on 6C3HED lymphosarcoma (oral, 150 mg/kg, DX 8), 93%; in the data set with 6C3HED lymphosarcoma (oral, 300 mg/kg, DX 8) it was 95%. Also, the inhibition in vivo at 150 mg/kg with 6C3HED lymphosarcoma (Mus musculus, 6C3HED, ip, read-out: % inhibition of tumor growth, IP, 150 mg/kg, DX 8) was determined as 92%; with 6C3HED lymphosarcoma (Mus musculus, 6C3HED, po, read-out: % inhibition of tumor growth, oral, 150 mg/kg, DX 8) it was 74%. The inhibition in vivo at 300 mg/kg was found to be 98% in the data set on 6C3HED lymphosarcoma (Mus musculus, 6C3HED, ip, read-out: % inhibition of tumor growth, IP, 300 mg/kg, DX 8) and 82% with 6C3HED lymphosarcoma (Mus musculus, 6C3HED, po, read-out: % inhibition of tumor growth, oral, 300 mg/kg, DX 8). Besides, the inhibition in vivo at 12.5 mg/kg with 6C3HED lymphosarcoma (Mus musculus, 6C3HED, iv, read-out: % inhibition of tumor growth, IV, 12.5 mg/kg, DX 8) came out at 36%. In addition, the inhibition in vivo at 25 mg/kg in the data set with 6C3HED lymphosarcoma (Mus musculus, 6C3HED, iv, read-out: % inhibition of tumor growth, IV, 25 mg/kg, DX 8) was found to be 52%. In addition, in the data set on 6C3HED lymphosarcoma (Mus musculus, 6C3HED, po, read-out: % inhibition of tumor growth, oral, 50 mg/kg, BIDX 8), the inhibition in vivo at 50 mg/kg amounted to 95%. The inhibition in vivo at 75 mg/kg in the data set with 6C3HED lymphosarcoma (Mus musculus, 6C3HED, po, read-out: % inhibition of tumor growth, oral, 75 mg/kg, DX 8) was 76%. Moreover, the inhibition in vivo at 100 mg/kg with 6C3HED lymphosarcoma (Mus musculus, 6C3HED, po, read-out: % inhibition of tumor growth, oral, 100 mg/kg, BIDX 8) amounted to 96%. In addition, the inhibition in vivo at 200 mg/kg in the data set with 6C3HED lymphosarcoma (Mus musculus, 6C3HED, po, read-out: % inhibition of tumor growth, oral, 200 mg/kg, BIDX 8) worked out at 98%. Moreover, in the data set on 6C3HED lymphosarcoma (Mus musculus, 6C3HED, po, read-out: % inhibition of tumor growth, oral, 400 mg/kg, BIDX 8), the inhibition in vivo at 400 mg/kg was determined as 99%. Also, in the data set with 6C3HED lymphosarcoma (Mus musculus, 6C3HED, po, read-out: % inhibition of tumor growth, oral, 600 mg/kg, DX 8), the inhibition in vivo at 600 mg/kg worked out at 99%. Besides, the inhibition in vivo at 800 mg/kg in the data set on 6C3HED lymphosarcoma (Mus musculus, 6C3HED, po, read-out: % inhibition of tumor growth, oral, 800 mg/kg, BIDX 8) was found to be 99%. The inhibition in vivo at 1200 mg/kg in the data set with 6C3HED lymphosarcoma (Mus musculus, 6C3HED, po, read-out: % inhibition of tumor growth, oral, 1200 mg/kg, DX 8) stood at 100%.
For `CCCCN=S(=O)(NC(=O)Nc1ccc(Cl)cc1)c1ccc(C)cc1` (centres unmarked) [Example 7, N-[[(4-chlorophenyl)amino]carbonyl]-N'-butyl-4-methylbenzenesulfonimidamide], the “% inhibition of tumor growth” value with VRC5 came to 0%. For the same molecule, the “Tox/Tot (mice which died / total)” value is 0/10 in the data set with VRC5; 0/10 with 6C3HED lymphosarcoma (oral, 18.75 mg/kg, BIDX 10); 0/10 with 6C3HED lymphosarcoma (oral, 37.5 mg/kg, BIDX 10); 0/10 with 6C3HED lymphosarcoma (oral, 75 mg/kg, BIDX 10); 0/10 in the data set on 6C3HED lymphosarcoma (oral, 150 mg/kg, BIDX 10). The inhibition in vivo at 18.75 mg/kg in the data set on 6C3HED lymphosarcoma (Mus musculus, 6C3HED, po, read-out: % inhibition of tumor growth, oral, 18.75 mg/kg, BIDX 10) was 21%. Besides, the inhibition in vivo at 37.5 mg/kg in the data set on 6C3HED lymphosarcoma (Mus musculus, 6C3HED, po, read-out: % inhibition of tumor growth, oral, 37.5 mg/kg, BIDX 10) was found to be 45%. Moreover, the inhibition in vivo at 75 mg/kg in the data set on 6C3HED lymphosarcoma (Mus musculus, 6C3HED, po, read-out: % inhibition of tumor growth, oral, 75 mg/kg, BIDX 10) is 69%. Moreover, in the data set with 6C3HED lymphosarcoma (Mus musculus, 6C3HED, po, read-out: % inhibition of tumor growth, oral, 150 mg/kg, BIDX 10), the inhibition in vivo at 150 mg/kg worked out at 88%.
Regarding `Cc1cc(S(=N)(=O)NC(=O)Nc2ccc(Cl)cc2)cc(C)c1C` (centres unmarked) [Example 45, N-[[(4-chlorophenyl)amino]carbonyl]-3,4,5-trimethylbenzenesulfonimidamide], the “Tox/Tot (mice which died / total)” value is recorded as 0/9 with LX1 (oral, 150 mg/kg, Days 1, 4, 7, 10, from day 7 after implant); 0/10 in the data set on LX1 (oral, 300 mg/kg, Days 1, 4, 7, 10, from day 7 after implant); 0/10 in the data set on 6C3HED lymphosarcoma (oral, 9.37 mg/kg, Days 1, 3, 5, 7); 0/10 with 6C3HED lymphosarcoma (oral, 18.75 mg/kg, Days 1, 3, 5, 7); 2/10 in the data set on 6C3HED lymphosarcoma (oral, 37.5 mg/kg, Days 1, 3, 5, 7); 1/10 in the data set on 6C3HED lymphosarcoma (oral, 75 mg/kg, Days 1, 3, 5, 7). The “Tox/Tot (mice which died / total)” value in the data set on 6C3HED lymphosarcoma (setting [3]) is on record as 2/10; in the data set with 6C3HED lymphosarcoma (oral, 300 mg/kg, Days 1, 3, 5, 7), 3/10. Moreover, the “% inhibition of tumor growth” value in the data set on LX1 (po, 150 mg/kg, 168 h) came to 40%; in the data set on LX1 (po, 300 mg/kg, 168 h) it was 31%; in the data set on 6C3HED lymphosarcoma (setting [3]), 99%. The inhibition in vivo at 9.37 mg/kg in the data set on 6C3HED lymphosarcoma (Mus musculus, 6C3HED, po, read-out: % inhibition of tumor growth, oral, 9.37 mg/kg, Days 1, 3, 5, 7) came out at 78%. In addition, the inhibition in vivo at 18.75 mg/kg in the data set on 6C3HED lymphosarcoma (Mus musculus, 6C3HED, po, read-out: % inhibition of tumor growth, oral, 18.75 mg/kg, Days 1, 3, 5, 7) is 95%. Further, the inhibition in vivo at 37.5 mg/kg in the data set on 6C3HED lymphosarcoma (Mus musculus, 6C3HED, po, read-out: % inhibition of tumor growth, oral, 37.5 mg/kg, Days 1, 3, 5, 7) is 99%. For the same molecule, the inhibition in vivo at 75 mg/kg in the data set on 6C3HED lymphosarcoma (Mus musculus, 6C3HED, po, read-out: % inhibition of tumor growth, oral, 75 mg/kg, Days 1, 3, 5, 7) was 99%. The inhibition in vivo at 150 mg/kg in the data set with 6C3HED lymphosarcoma (Mus musculus, 6C3HED, po, read-out: % inhibition of tumor growth, oral, 150 mg/kg, Days 1, 3, 5, 7) came out at 100%. In the data set on 6C3HED lymphosarcoma (Mus musculus, 6C3HED, po, read-out: % inhibition of tumor growth, oral, 300 mg/kg, Days 1, 3, 5, 7), the inhibition in vivo at 300 mg/kg was found to be 100%.
